One assay has as its target T1, αQ101K mutant hENaC (Homo sapiens, UniProt P37088+P51168+P51170, Q101K).
T1 construct: expressed in transfected cells
T1 sequence (P37088 1-669 Q101K): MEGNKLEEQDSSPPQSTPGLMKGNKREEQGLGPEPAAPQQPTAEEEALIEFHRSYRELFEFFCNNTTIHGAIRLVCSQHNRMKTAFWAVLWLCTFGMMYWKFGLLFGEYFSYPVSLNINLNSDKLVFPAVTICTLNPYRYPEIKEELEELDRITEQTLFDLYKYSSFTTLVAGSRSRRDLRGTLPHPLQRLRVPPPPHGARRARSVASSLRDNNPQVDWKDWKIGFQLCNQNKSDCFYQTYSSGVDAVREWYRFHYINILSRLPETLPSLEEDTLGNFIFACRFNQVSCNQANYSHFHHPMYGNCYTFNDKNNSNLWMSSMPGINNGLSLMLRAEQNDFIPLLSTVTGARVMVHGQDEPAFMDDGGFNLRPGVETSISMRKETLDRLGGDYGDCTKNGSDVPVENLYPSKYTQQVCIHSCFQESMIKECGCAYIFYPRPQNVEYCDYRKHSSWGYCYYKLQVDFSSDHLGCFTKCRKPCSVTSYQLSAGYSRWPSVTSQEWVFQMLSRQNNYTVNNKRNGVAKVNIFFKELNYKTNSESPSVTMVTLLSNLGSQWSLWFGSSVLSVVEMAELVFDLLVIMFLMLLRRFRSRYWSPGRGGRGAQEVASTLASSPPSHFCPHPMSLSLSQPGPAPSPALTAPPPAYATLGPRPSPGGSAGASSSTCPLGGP
T1 sequence (P51168 1-640): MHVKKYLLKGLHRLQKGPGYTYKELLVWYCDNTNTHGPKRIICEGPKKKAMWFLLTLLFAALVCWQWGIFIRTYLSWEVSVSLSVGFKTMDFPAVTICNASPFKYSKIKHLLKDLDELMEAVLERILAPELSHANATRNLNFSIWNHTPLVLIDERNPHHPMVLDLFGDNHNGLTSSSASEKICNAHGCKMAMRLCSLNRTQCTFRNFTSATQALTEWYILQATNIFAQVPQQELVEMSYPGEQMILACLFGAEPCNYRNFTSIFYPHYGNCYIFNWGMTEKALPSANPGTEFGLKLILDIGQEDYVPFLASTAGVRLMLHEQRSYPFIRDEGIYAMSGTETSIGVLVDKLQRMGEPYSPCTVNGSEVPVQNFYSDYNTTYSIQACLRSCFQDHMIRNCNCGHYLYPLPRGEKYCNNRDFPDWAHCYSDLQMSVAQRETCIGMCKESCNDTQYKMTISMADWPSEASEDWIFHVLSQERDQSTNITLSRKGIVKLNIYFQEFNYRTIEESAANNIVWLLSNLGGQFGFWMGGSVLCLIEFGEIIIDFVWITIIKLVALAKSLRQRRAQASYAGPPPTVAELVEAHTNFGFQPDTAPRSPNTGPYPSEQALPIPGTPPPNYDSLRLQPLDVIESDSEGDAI
T1 sequence (P51170 1-649): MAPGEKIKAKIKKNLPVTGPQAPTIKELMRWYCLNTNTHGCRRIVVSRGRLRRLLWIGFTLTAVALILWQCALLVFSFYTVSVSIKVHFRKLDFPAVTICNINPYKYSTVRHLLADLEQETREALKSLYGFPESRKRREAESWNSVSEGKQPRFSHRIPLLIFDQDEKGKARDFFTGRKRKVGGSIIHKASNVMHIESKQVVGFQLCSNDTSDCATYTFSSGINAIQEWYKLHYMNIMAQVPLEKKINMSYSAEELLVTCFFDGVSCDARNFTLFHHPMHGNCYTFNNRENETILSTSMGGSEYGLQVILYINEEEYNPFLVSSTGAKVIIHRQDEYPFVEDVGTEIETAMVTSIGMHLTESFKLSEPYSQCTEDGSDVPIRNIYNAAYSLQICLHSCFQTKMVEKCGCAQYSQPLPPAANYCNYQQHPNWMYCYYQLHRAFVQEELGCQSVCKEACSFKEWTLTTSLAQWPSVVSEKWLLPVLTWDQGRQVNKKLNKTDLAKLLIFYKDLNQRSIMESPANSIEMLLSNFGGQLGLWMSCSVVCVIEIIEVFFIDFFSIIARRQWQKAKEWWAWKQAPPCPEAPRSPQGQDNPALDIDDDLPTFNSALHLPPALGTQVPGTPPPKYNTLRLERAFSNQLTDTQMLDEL
Nature of the assay: Whole-cell patch clamp, amiloride-sensitive Na+ current, αQ101K ENaC. The following applies: αQ101K activated by solnatide; 10 μM amiloride. The assay is classed as cell-based. As for the experimental part:
(§1) Human embryonic kidney HEK-293 cells (ATCC no. CRL-1573) in passages 3–25, were seeded in Dulbecco's modified Eagle medium/F12 nutrient mixture Ham plus L-glutamine (DMEM/F-12; Gibco™ by Life Technologies, LifeTech Austria), supplemented with 10% fetal bovine serum (FBS; Gibco™ by Life Technologies, LifeTech Austria) and 1% penicillin-streptomycin (Sigma-Aldrich, Vienna, Austria). Cells were maintained at 37°C with 5% CO2 in a humidified incubator.
(§2) Point mutations and single base (insertions or) deletions, causing a frameshift, were introduced into cDNA encoding α-, β-, or γ-hENaC using QuikChange Lightning Site-Directed Mutagenesis Kit (Agilent Technologies, CA, USA). Pairs of mutagenic primers were designed individually with the Primer Design Program provided on the producer's website. The same bases were changed as reported in patients or at least resulting in the same protein products. The designed primers were ordered after checking their properties using the DNA Oligos Design Tool from Sigma-Aldrich, Vienna, Austria (Table 1).
(§3) HEK-293 cells were transfected 1 day after cell seeding using X-tremeGENE HP DNA transfection reagent (Roche Diagnostics, Mannheim, Germany) according to the manufacturer's protocol. […]
In general terms: Patch clamp records ionic current or voltage across a cell membrane.

Another assay has as its target T2, αG327C mutant hENaC (Homo sapiens, UniProt P37088+P51168+P51170, G327C).
T2 construct: expressed in transfected cells
T2 sequence (P37088 1-669 G327C): T1 sequence (P37088 1-669 Q101K) with K101Q, G327C
T2 sequence (P51168 1-640): T1 sequence (P51168 1-640)
T2 sequence (P51170 1-649): T1 sequence (P51170 1-649)
Nature of the assay: Whole-cell patch clamp, amiloride-sensitive Na+ current, αG327C ENaC. It is filed as cell-based. The following applies: αG327C activated by AP318; 10 μM amiloride. As for the experimental part: as §1, §2, §3

Assay [1] relates to mock-transfected HEK-293 cells. Nature of the assay: Whole-cell current of mock-transfected cells. It is filed as cell-based, human.
Procedure: Whole-cell currents were recorded from transfected HEK-293 cells with an Axopatch 200B amplifier, DigiData 1440A and pCLAMP10.2 software (Axon Instruments, Union City, CA) at room temperature (19–22°C) 48–72 h after transfection. Currents were recorded at 10 kHz and filtered at 5 kHz. The chamber contained 1 ml bath solution of the following composition (in mM): 145 NaCl, 2.7 KCl, 1.8 CaCl2, 2 MgCl2, 5.5 glucose, and 10 HEPES, adjusted to pH 7.4 with 1 M NaOH solution. The borosilicate glass patch pipettes (Harvard Apparatus, Holliston, MA) had resistances of 2–4 MΩ. The pipette solution contained (in mM): 135 potassium methane sulphonate, 10 KCl, 6 NaCl, 1Mg2ATP, 2 Na3ATP, 10 HEPES, and 0.5 EGTA, adjusted to pH 7.2 with 1 M KOH solution. Data acquisition and storage were processed directly to a PC. […] Differences were evaluated by one-way ANOVA followed by Tukey's post-hoc test.
In assay [2] the target is human ENaC with the frameshift γV543fs (γ subunit of 597 residues, abnormal sequence after S542), co-expressed with WT α and β subunits (human) (UniProt P37088).

Changes are numbered by the printed parent chain.

`N=C(N)NC(=O)c1nc(Cl)c(N)nc1N` [amiloride]: the “block of peptide-induced activation” value at αQ101K mutant hENaC and at αG327C mutant hENaC was “can be blocked by 10 μM amiloride” throughout. Further, the “amiloride-sensitive or peptide-induced current” value in assay [1] (10 μM amiloride or 200 nM peptide) is recorded as “about zero”. Moreover, the whole-cell current in assay [1] (10 μM amiloride, control 11.28 ± 5.68 pA) was found to be 10.47 ± 6.23 pA.
For the molecule AP318 (peptide), the EC50 of the increase of amiloride-sensitive Na+ current, whole-cell patch clamp at -100 mV, transfected HEK-293 cells, peptide 2-200 nM in assay [2] was determined as 47.7 nM.
